Like-named read-outs stand apart in the source and are kept apart here.
Assays:
[1] = Brain penetration after oral gavage, HPLC/MS of brain extracts; assay type: in vivo, C57BL/6 mice; details: for concentration at 24 h: C57BL/6, mouse, brain, oral, 50 mg/kg, mouse, read-out: Compounds in brain extract
Procedure: C57BL/6 mice ([…]) were used. The animals received treatments with either free compounds of Formulae 1 and 10, or encapsulated compounds, prepared according to the Examples 16 and 17. Doses as indicated in the Table 4 below were administered in phosphate-buffered saline (PBS) through an oral gavage. After 12 hours and 24 hours, randomly selected mice from each group were sacrificed, their brains collected and stored in −80° C. The concentrations of the compounds in the tissues were determined by HPLC/MS analysis.
Tissue samples were homogenized in phosphate-buffered saline solution, then diluted with acetonitrile to 50% v/v, centrifuged at 10,000 g for 10 minutes, and supernatants were analyzed. The compounds concentrations in the brain extracts were determined from calibration curves. The results were the averaged from 2 mice for each treatment group/time point.

[2] = tested on: 5XFAD transgenic mice with AD-like disease; assay: Radial-arm water maze learning and memory task in 5XFAD transgenic mice; assay type: in vivo, mouse; details: 5XFAD mice, 20 mg/kg in drinking water for 4 months, tested at six months of age
Procedure: Animals at age two months were assigned to three groups: transgenic treated (TG-T, 8 males and 3 females), transgenic vehicle (TG-V, 8 males and 3 females), and wild type (WT, 10 males and 8 females).
Two-months old 5XFAD mice were provided with 0.9% of DMSO solution or VBIT-4 solution (20 mg/kg in 0.9% DMSO) in drinking water replaced with fresh solution three times a week in the first month and thereafter twice a week for additional 3 months.
When the mice reached the age of six months, a two-day radial-arm water maze (RAWM) trial was performed as described previously (Jennifer Alamed, et al, Nature Protocols 1, (2006) 1671-1679) to test the effect of VBIT-4 on learning and memory task. The RAWM containing six swim paths (arms) was used. The arms were extending out from an open central area with an escape platform located at the end of one arm (the goal arm). The goal arm location remained constant for a given mouse. On day 1, mice were trained for 15 trials (spaced over 3 h), with trials alternating between visible and hidden platforms. On day 2, mice were trained for 15 trials with the hidden platform.
Entry into an incorrect arm was scored as an error, and the times spent by the animal to find the platform were recorded. […] To examine the source of differences the post-hoc test of Bonferroni-type was used. […]

[3] = target: VDAC1 (Homo sapiens, UniProt P21796); assay: Selenite-induced VDAC1 oligomerization by EGS cross-linking and immunoblot in HEK-293 cells (Method B); assay type: cell-based; parameters: endogenous in cells; host or cells: HEK-293; details: HEK-293 cells, compound 2 h then selenite 15 μM 4 h; means±SD (n=3); read-out: VDAC1 oligomerization IC50
Chain of VDAC1 (P21796 whole entry): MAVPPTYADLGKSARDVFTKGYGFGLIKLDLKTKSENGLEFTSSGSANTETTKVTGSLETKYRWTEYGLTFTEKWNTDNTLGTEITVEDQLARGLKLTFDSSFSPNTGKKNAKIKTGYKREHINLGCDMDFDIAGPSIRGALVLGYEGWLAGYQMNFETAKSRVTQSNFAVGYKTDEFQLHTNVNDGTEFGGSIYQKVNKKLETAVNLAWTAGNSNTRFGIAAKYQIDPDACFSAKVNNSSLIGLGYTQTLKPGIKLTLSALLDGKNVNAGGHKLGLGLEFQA
Procedure: Appropriate test cells (2.5-3 mg/ml) in PBS, were harvested after the treatment and incubated with the cross-linking reagent EGS at a ratio of 100-300 μM for sample of 2-3 mg protein/ml concentration (pH 8.3) for 15 minutes. Protein concentration was determined according to Lowry assay. Samples (60-80 μg protein) were subjected to SDS-PAGE by a standard technique and immunoblotting was performed using anti-VDAC1 antibodies. Gels were electro-transferred onto nitrocellulose membranes for immuno-staining. The membranes were incubated with a blocking solution containing 5% non-fat dry milk and 0.1% Tween-20 in Tris-buffered saline, followed by incubation with monoclonal anti-VDAC1, anti-Cytochrome c, anti-AIF or anti-actin antibodies. Membranes were then incubated with HRP-conjugated anti-mouse or anti-rabbit IgG (1:10,000), serving as secondary antibodies. Antibody labeling was detected by chemiluminescence. To detect VDAC1 oligomers, membranes were treated with 0.1 M glycine, pH 2.0, prior to immunoblotting and washed several times with 0.1% Tween-20 in Tris-buffered saline. Quantitative analysis of immuno-reactive VDAC1 dimer, trimer and multimer bands was performed using FUSION-FX (Vilber Lourmat, France).
The closed circle (●) indicates VBIT-4 (compound of Formula 1), the open circle (◯) indicates compound of Formula 10, and an open square (□) indicates VBIT-3 (compound of Formula 2).
d. IC50 values of the tested compounds were derived from the obtained data. The results shown correspond to means±SD (n=3).

[4] = tested on: dopaminergic neurons; assay: MPTP-induced Parkinson-like disease mouse model, brain immunofluorescence; assay type: in vivo, C57BL/6N male mice; details: MPTP 20 mg/kg IP 5 days; 20 mg/kg in drinking water from day 3
Procedure: The Experimental protocols were approved by the Institutional Animal Care and Use Committee. Briefly, C57BL/6N male mice 3-months old were injected IP 3 times/week with vehicle (saline) as control. Parkinsonism was induced by repetitive intraperitoneal injection of 20 mg/kg 1-methyl-4-phenyl-1,2,3,6-tetrahydropyridine hydrochloride (MPTP), Sigma, Israel) in saline, for 5 consecutive days. Group 3 was injected with MPTP and at day 3 of MPTP treatment it was subjected to compound of Formula 3 (VBIT-12) 20 mg/kg in drinking water.
Brains from the scarified mice were analyzed for the pathophysiological features of PD-like mouse models as induced by MPTP and the effect of VBIT-12 on the dopaminergic neurons (DN) was analyzed. Fixed brains were subjected to coronal sections (5 μm thickness) including the Substantia nigra pars compacta (SNc), ventral tegmental area (VTA) and Substantia nigra pars reticular (SNR) (see FIG. 25B) and used for immunofluorescence (IF) (FIG. 25C). Evaluation of dopaminergic neuron degeneration was monitored using anti-Tyrosine hydroxylase (TH) antibodies, which is expressed in dopaminergic neurons.
This decrease was prevented by VBIT-12, as reflected by the increase of the number of cells stained with TH relative to the MPTP-treated group not subjected to VBIT-12.
Sections were also subjected for staining with anti-VDAC1 antibodies (FIG. 25D). […]

concentration at 24 h ([1]; 50 mg/kg in PLGA nanoparticles, oral gavage) [nM] | concentration at 24 h ([1]; 50 mg/kg oral gavage, free compound) [nM] | brain penetration ([1]; given orally, in solution or encapsulated in PLGA nano-particles) | IC50 [3] [nM] | SMILES | RAWM number of errors [2] | RAWM total time spent [2] | VDAC1 levels in dopaminergic neurons (anti-VDAC1 staining) [4] | dopaminergic neurons in SNc (TH staining) [4]
190 ± 70 | 120 ± 20 | reached the brain | 1900 | O=C(CC(CO)N1CCN(c2ccc(OC(F)(F)F)cc2)CC1)Nc1ccc(Cl)cc1 (racemic) [Formula 1, N-(4-chlorophenyl)-4-hydroxy-3-(4-(4-(trifluoromethoxy)phenyl)-piperazin-1-yl)butanamide] | better than untreated TG | better than untreated TG |  | 
 |  |  |  | O=C(O)CNC(=O)C1(Nc2ccccc2)CCN(Cc2cccc3ccccc23)CC1 [Formula 3] |  |  | decreased | protected against neuronal loss
